Assays:
lab rats = settings: cited from earlier work
human finger tip = settings: in vivo, 5 min
Procedure: Raman spectra were collected from a human finger tip irradiated with a near-infrared laser beam using conventional equipment, including a light collection and analysis system. Test agents were applied to the finger tip and allowed to penetrate the tissue for 5 minutes before rinsing the finger tip with acetone.

| depth of penetration indicated by persistence of peak near 2200 cm^-1 (human finger tip) | Compound | symptoms at about double the 10-15% body water replacement (lab rats; lab rats, continuous regimen of D2O) | share of total body water weight replaced by D2O below which there are no signs of ingestion or poisoning (lab rats; rat, in vivo) |
| --- | --- | --- | --- |
|  | [2H]O[2H] [D2O] | severe | 10-15% |
| 1-2 mm | [2H]C([2H])([2H])C([2H])([2H])C([2H])([2H])C([2H])([2H])C([2H])([2H])C([2H])([2H])C([2H])([2H])C([2H])([2H])C([2H])([2H])C([2H])([2H])C([2H])([2H])C([2H])([2H])C([2H])([2H])C([2H])([2H])C([2H])([2H])C([2H])([2H])C([2H])([2H])C(=O)O [stearic acid-d35] |  |  |

From patent publication US20020041848A1, “Chemically Specific Imaging Of Tissue” (priority 1999, published 2002)
